The record followed here is patent US9873680B2 (Gilead Sciences, Inc., priority 2014, dated 2018).

Data set [1] can be described thus: Test B: Cytotoxicity Assay. To be noted: human, uninfected MT-4 cells, CellTiter-Glo. Type of data set: cell-based. As for the experimental part: Test B: Cytotoxicity Assay Compound cytotoxicity and the corresponding CC50 values was determined using the same protocol as described in the antiviral assay (Test A) except that uninfected cells were used.
Background: Cellular ATP, detected with luciferase, serves as a proxy for viable cell number.

Data set [2] concerns HIV-IIIb. The data set is described as follows: Test A: Antiviral Assay in MT4 Cells. Format: cell-based, HIV-1. To be noted: for inhibition at 0.2 µM: 0.2 μM drug concentration; for inhibition at 2 µM: 2 μM drug concentration, read-out: Response at 2 μM (percent inhibition of virus-induced cell killing). As for the experimental part:
Test A: Antiviral Assay in MT4 Cells
MT-4 cells were next mixed with HIV-IIIb at an m.o.i of 0.003 for 1 hour, after which time 35 μL of virus/cell mixture (2000 cells) was immediately added to each well containing 40 μL of diluted compound. The plates were then incubated at 37° C. for 5 days. After 5 days of incubation, 25 μl of 2× concentrated CellTiter-Glo™ Reagent (catalog #G7571, Promega Biosciences, Inc., Madison, Wis.) was added to each well containing MT-4 cells. Cell lysis was carried out by incubating at room temperature for 10 min and then chemiluminescence was read.

[3] abbreviates: Human immunodeficiency virus 1, MT4, 120 h, MT-4 cells infected with HIV-IIIb, 5 days, values normalized to 100%, average over time, read-out: % inhibition at 0.2 μM (percent inhibition of virus-induced cell killing).
Setting [4] is: Human immunodeficiency virus 1, IIIB, MT4, comparison with previously published compounds, read-out: Response at 0.2 μM (percent inhibition of virus-induced cell killing).
[5] abbreviates: Human immunodeficiency virus 1, IIIB, MT4, comparison with previously published compounds.

The structures appear in SMILES notation. Read-outs that look alike come from different tables or passages of the source.

What is called CC50 is the concentration giving 50% cytotoxicity. In general, inhibition refers to the percentage by which the read-out fell short of the control.

In turn, `CN(C)c1ccc(C#Cc2ccc(-c3ccc4c(c3)C(=O)NC4)c([C@H](Cc3cc(F)cc(F)c3)NC(=O)Cn3nc(C(F)(F)F)c4c3C(F)(F)[C@@H]3C[C@H]43)n2)cc1` [Compound 14, 2-((3bS,4aR)-5,5-difluoro-3-(trifluoromethyl)-3b,4,4a,5-tetrahydro-1H-cyclopropa[3,4]cyclopenta[1,2-c]pyrazol-1-yl)-N—((S)-2-(3,5-difluorophenyl)-1-(6-((4-(dimethylamino)phenyl)ethynyl)-3-(3-oxoisoindolin-5-yl)pyridin-2-yl)ethyl)acetamide] displayed a CC50 at 5 days in data set [1] above 53.2 µM. Moreover, in data set [2] (setting [3]), the inhibition at 0.2 µM came to 1%.

Turning to `NC(=O)c1cc(-c2ccc(C#CC3(O)CCCC3)nc2[C@H](Cc2cc(F)cc(F)c2)NC(=O)Cn2nc(C(F)(F)F)c3c2C(F)(F)[C@@H]2C[C@H]32)ccc1F` [Compound 15B, 5-(2-((S)-1-(2-((3bS,4aR)-5,5-difluoro-3-(trifluoromethyl)-3b,4,4a,5-tetrahydro-1H-cyclopropa[3,4]cyclopenta[1,2-c]pyrazol-1-yl)acetamido)-2-(3,5-difluorophenyl)ethyl)-6-((1-hydroxycyclopentyl)ethynyl)pyridin-3-yl)-2-fluorobenzamide], the 50% cytotoxic concentration (CC50) at 5 days in data set [1] was found to be 3.02 µM. For the same molecule, the inhibition at 0.2 µM in data set [2] (setting [4]) and in data set [2] (setting [3]) was 68% in each case. Besides, in data set [2] (setting [5]), the inhibition at 2 µM is 68%.

Consider `NC(=O)c1cc(-c2ccc(C#CC3(O)CCCCC3)nc2[C@H](Cc2cc(F)cc(F)c2)NC(=O)Cn2nc(C(F)(F)F)c3c2C(F)(F)[C@@H]2C[C@H]32)ccc1F` [Compound 16, 5-(2-((S)-1-(2-((3bS,4aR)-5,5-difluoro-3-(trifluoromethyl)-3b,4,4a,5-tetrahydro-1H-cyclopropa[3,4]cyclopenta[1,2-c]pyrazol-1-yl)acetamido)-2-(3,5-difluorophenyl)ethyl)-6-((1-hydroxycyclohexyl)ethynyl)pyridin-3-yl)-2-fluorobenzamide], for which the half-maximal cytotoxic concentration (CC50) at 5 days in data set [1] came out at 3 µM. Further, the inhibition at 0.2 µM in data set [2] (setting [4]) and in data set [2] (setting [3]) was 76% each time. In addition, in data set [2] (setting [5]), the inhibition at 2 µM was determined as 77%.

As to `CC(O)(C#Cc1ccc(-c2ccc(F)c(C(N)=O)c2)c([C@H](Cc2cc(F)cc(F)c2)NC(=O)Cn2nc(C(F)(F)F)c3c2C(F)(F)[C@@H]2C[C@H]32)n1)c1ccccc1` (stereo partly drawn) [Compound 17, 5-(2-((S)-1-(2-((3bS,4aR)-5,5-difluoro-3-(trifluoromethyl)-3b,4,4a,5-tetrahydro-1H-cyclopropa[3,4]cyclopenta[1,2-c]pyrazol-1-yl)acetamido)-2-(3,5-difluorophenyl)ethyl)-6-(3-hydroxy-3-phenylbut-1-yn-1-yl)pyridin-3-yl)-2-fluorobenzamide], in data set [1], the CC50 at 5 days is 3.06 µM. For the same molecule, the inhibition at 0.2 µM in data set [2] (setting [4]) and in data set [2] (setting [3]) was 66% each time. For the same molecule, the inhibition at 2 µM in data set [2] (setting [5]) is 73%.

For the molecule `Cc1cc(C#Cc2ncc(-c3ccc(F)c(C(N)=O)c3)c([C@H](Cc3cc(F)cc(F)c3)NC(=O)Cn3nc(C(F)(F)F)c4c3C(F)(F)[C@@H]3C[C@H]43)n2)ccn1` [Compound 18C, 5-(4-((S)-1-(2-((3bS,4aR)-5,5-difluoro-3-(trifluoromethyl)-3b,4,4a,5-tetrahydro-1H-cyclopropa[3,4]cyclopenta[1,2-c]pyrazol-1-yl)acetamido)-2-(3,5-difluorophenyl)ethyl)-2-((2-methylpyridin-4-yl)ethynyl)pyrimidin-5-yl)-2-fluorobenzamide], in data set [1], the CC50 at 5 days stood at 2.31 µM. Besides, the inhibition at 0.2 µM in data set [2] (setting [4]) and in data set [2] (setting [3]) was 90% in each case. The inhibition at 2 µM in data set [2] (setting [5]) is 94%.

`Cc1cncc(C#Cc2ncc(-c3ccc(F)c(C(N)=O)c3)c([C@H](Cc3cc(F)cc(F)c3)NC(=O)Cn3nc(C(F)(F)F)c4c3C(F)(F)[C@@H]3C[C@H]43)n2)c1` [Compound 19, 5-(4-((S)-1-(2-((3bS,4aR)-5,5-difluoro-3-(trifluoromethyl)-3b,4,4a,5-tetrahydro-1H-cyclopropa[3,4]cyclopenta[1,2-c]pyrazol-1-yl)acetamido)-2-(3,5-difluorophenyl)ethyl)-2-((5-methylpyridin-3-yl)ethynyl)pyrimidin-5-yl)-2-fluorobenzamide] yielded a cytotoxic concentration (CC50) at 5 days in data set [1] of 4.63 µM. The inhibition at 0.2 µM in data set [2] (setting [4]) and in data set [2] (setting [3]) was 83% in each case. Moreover, the inhibition at 2 µM in data set [2] (setting [5]) worked out at 88%.

For the molecule `Cn1nc(NS(C)(=O)=O)c2cccc(-c3ccc(C#CC4(O)COC4)nc3[C@H](Cc3cc(F)cc(F)c3)NC(=O)Cn3nc(C(F)(F)F)c4c3C(F)(F)[C@@H]3C[C@H]43)c21` [Compound 20E, 2-((3bS,4aR)-5,5-difluoro-3-(trifluoromethyl)-3b,4,4a,5-tetrahydro-1H-cyclopropa[3,4]cyclopenta[1,2-c]pyrazol-1-yl)-N—((S)-2-(3,5-difluorophenyl)-1-(6-((3-hydroxyoxetan-3-yl)ethynyl)-3-(1-methyl-3-(methylsulfonamido)-1H-indazol-7-yl)pyridin-2-yl)ethyl)acetamide], in data set [1], the CC50 at 5 days amounted to 27.7 µM. The inhibition at 0.2 µM in data set [2] (setting [3]) is 94%.

Turning to `Cc1c(-c2ccc(C#CC3(O)COC3)nc2[C@H](Cc2cc(F)cc(F)c2)NC(=O)Cn2nc(C(F)(F)F)c3c2C(F)(F)[C@@H]2C[C@H]32)ccc2n[nH]c(=O)n12` [Compound 21, 2-((3bS,4aR)-5,5-difluoro-3-(trifluoromethyl)-3b,4,4a,5-tetrahydro-1H-cyclopropa[3,4]cyclopenta[1,2-c]pyrazol-1-yl)-N—((S)-2-(3,5-difluorophenyl)-1-(6-((3-hydroxyoxetan-3-yl)ethynyl)-3-(5-methyl-3-oxo-2,3-dihydro-[1,2,4]triazolo[4,3-a]pyridin-6-yl)pyridin-2-yl)ethyl)acetamide], in data set [1], the CC50 at 5 days amounted to 11.7 µM. Besides, the inhibition at 0.2 µM in data set [2] (setting [3]) is 100%.

`Cn1nc(NS(C)(=O)=O)c2cccc(-c3ccc(C#CC4(O)CNC4)nc3[C@H](Cc3cc(F)cc(F)c3)NC(=O)Cn3nc(C(F)(F)F)c4c3C(F)(F)[C@@H]3C[C@H]43)c21` [Compound 22C, 2-((3bS,4aR)-5,5-difluoro-3-(trifluoromethyl)-3b,4,4a,5-tetrahydro-1H-cyclopropa[3,4]cyclopenta[1,2-c]pyrazol-1-yl)-N—((S)-2-(3,5-difluorophenyl)-1-(6-((3-hydroxyazetidin-3-yl)ethynyl)-3-(1-methyl-3-(methylsulfonamido)-1H-indazol-7-yl)pyridin-2-yl)ethyl)acetamide]: in data set [1], the half-maximal cytotoxic concentration (CC50) at 5 days worked out at 17.7 µM. The inhibition at 0.2 µM in data set [2] (setting [3]) was 93%.

For `CN1CC(O)(C#Cc2ccc(-c3cccc4c(NS(C)(=O)=O)nn(C)c34)c([C@H](Cc3cc(F)cc(F)c3)NC(=O)Cn3nc(C(F)(F)F)c4c3C(F)(F)[C@@H]3C[C@H]43)n2)C1` [Compound 23C, 2-((3bS,4aR)-5,5-difluoro-3-(trifluoromethyl)-3b,4,4a,5-tetrahydro-1H-cyclopropa[3,4]cyclopenta[1,2-c]pyrazol-1-yl)-N—((S)-2-(3,5-difluorophenyl)-1-(6-((3-hydroxy-1-methylazetidin-3-yl)ethynyl)-3-(1-methyl-3-(methylsulfonamido)-1H-indazol-7-yl)pyridin-2-yl)ethyl)acetamide], in data set [1], it took 9.19 µM to reach half-maximal cytotoxicity (CC50 at 5 days). Also, the inhibition at 0.2 µM in data set [2] (setting [3]) was determined as 100%.

`Cn1nc(NS(C)(=O)=O)c2cccc(-c3ccc(C#CC4(O)CCC4)nc3[C@H](Cc3cc(F)cc(F)c3)NC(=O)Cn3nc(C(F)(F)F)c4c3C(F)(F)[C@@H]3C[C@H]43)c21` [Compound 24D, 2-((3bS,4aR)-5,5-difluoro-3-(trifluoromethyl)-3b,4,4a,5-tetrahydro-1H-cyclopropa[3,4]cyclopenta[1,2-c]pyrazol-1-yl)-N—((S)-2-(3,5-difluorophenyl)-1-(6-((1-hydroxycyclobutyl)ethynyl)-3-(1-methyl-3-(methylsulfonamido)-1H-indazol-7-yl)pyridin-2-yl)ethyl)acetamide] had a CC50 at 5 days in data set [1] of 15.8 µM. In addition, the inhibition at 0.2 µM in data set [2] (setting [3]) stood at 100%.

`Cn1nc(N)c2cccc(-c3ccc(C#CC4(O)CCC4)nc3[C@H](Cc3cc(F)cc(F)c3)NC(=O)Cn3nc(C(F)(F)F)c4c3C(F)(F)[C@@H]3C[C@H]43)c21` [Compound 25, N—((S)-1-(3-(3-amino-1-methyl-1H-indazol-7-yl)-6-((1-hydroxy-cyclobutyl)ethynyl)pyridin-2-yl)-2-(3,5-difluorophenyl)ethyl)-2-((3bS,4aR)-5,5-difluoro-3-(trifluoromethyl)-3b,4,4a,5-tetrahydro-1H-cyclopropa[3,4]cyclopenta[1,2-c]pyrazol-1-yl)acetamide] registered a CC50 at 5 days in data set [1] of 9.92 µM. For the same molecule, the inhibition at 0.2 µM in data set [2] (setting [3]) stood at 91%.

On to `Cn1nc(NS(C)(=O)=O)c2cccc(-c3ccc(C#CC4(O)CCOCC4)nc3[C@H](Cc3cc(F)cc(F)c3)NC(=O)Cn3nc(C(F)(F)F)c4c3C(F)(F)[C@@H]3C[C@H]43)c21` [Compound 26, 2-((3bS,4aR)-5,5-difluoro-3-(trifluoromethyl)-3b,4,4a,5-tetrahydro-1H-cyclopropa[3,4]cyclopenta[1,2-c]pyrazol-1-yl)-N—((S)-2-(3,5-difluorophenyl)-1-(6-((4-hydroxytetrahydro-2H-pyran-4-yl)ethynyl)-3-(1-methyl-3-(methylsulfonamido)-1H-indazol-7-yl)pyridin-2-yl)ethyl)acetamide], for which, in data set [1], the CC50 at 5 days turned out to be 15.9 µM. For the same molecule, the inhibition at 0.2 µM in data set [2] (setting [3]) is 94%.
